The target in one test is T1, AChE (Mus musculus, UniProt P21836).
T1 construct: from tissue; host or cells: mouse serum (C57BL/6JRccHsd)
T1 sequence (P21836 32-614): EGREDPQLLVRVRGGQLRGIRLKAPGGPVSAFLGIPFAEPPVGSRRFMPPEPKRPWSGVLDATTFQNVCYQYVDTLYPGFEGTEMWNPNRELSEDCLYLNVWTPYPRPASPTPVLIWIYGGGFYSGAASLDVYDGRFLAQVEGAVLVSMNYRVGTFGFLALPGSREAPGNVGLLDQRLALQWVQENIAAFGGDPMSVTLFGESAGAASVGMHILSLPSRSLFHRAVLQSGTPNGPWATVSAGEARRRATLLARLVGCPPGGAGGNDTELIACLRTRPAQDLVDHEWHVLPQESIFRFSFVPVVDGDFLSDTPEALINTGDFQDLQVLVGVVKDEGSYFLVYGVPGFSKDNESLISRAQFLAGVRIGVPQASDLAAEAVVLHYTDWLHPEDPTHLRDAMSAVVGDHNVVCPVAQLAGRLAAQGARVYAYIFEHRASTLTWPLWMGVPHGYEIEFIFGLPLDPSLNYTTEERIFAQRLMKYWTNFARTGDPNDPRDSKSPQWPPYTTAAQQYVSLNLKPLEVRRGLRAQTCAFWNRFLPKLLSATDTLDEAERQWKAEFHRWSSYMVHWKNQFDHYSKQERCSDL
Description: Cholinesterase inhibition upon repeated dosing, serum AChE. It counts as in vivo, C57BL/6JRccHsd mice. The source says:
The 12 mice used in this pilot study were 9–14 months old male wild-type C57BL/6JRccHsd mice bred in the Laboratory of Animal Genomics at the Faculty of Veterinary Medicine, University of Ljubljana, or purchased from Envigo RMS Holding Corp. Mice were conventionally bred in open polycarbonate cages (Tecniplast, Buguggiate, Italy) and provided with wood chip bedding (Lignocel®, Rettenmaier and Sons, Germany). Mice were kept under standard conditions, including a 12:12 dark–light cycle (LED, CCT 3000 k, with no more than 25 lux above the cage), a temperature range of 21–24 °C, and humidity between 50%–60%. They were fed irradiated rodent diet (Teklad global 16% protein rodent diet®, BN 2916, Envigo, Udine, Italy) and had access to drinkable tap water ad libitum. Due to the nature of this pilot study, the mice were housed individually. The experimental design was evaluated by the National Ethics Committee for Animal Experiments and approved by the Veterinary Administration of the Republic of Slovenia (document no. U34401-10/2021/8, with amendments U34401-10/2021/13 and U34401-10/2021/1).
Before the start of study, blood was drawn from the submandibular vein (facial vein) of the animals under isoflurane inhalation anesthesia (Isoflurin®, VetPharma, Spain) using a 5 mm lancet (Goldenrod Animal Sterile, MEDIpoint, Inc., NY, USA), collected in a microtube (Eppendorf, Safe-Lock tube, 0.5 mL, Eppendorf AG, Germany) and allowed to clot. After approximately 1 h, the blood was centrifuged at 6000 × g for 15 min at 4 °C to obtain the sera, which were stored at –80 °C until analysis.
Seven animals received the 1 mg/kg dose of compound 8, and five animals received the 5 mg/kg dose of compound 8. Compound 8 was prepared as a stock solution in 100% MeCN (5 and 10 mg/mL) and kept refrigerated for the duration of the study. The dosages were prepared as follows: based on the animal’s body weight, a calculated volume of compound 8 stock solution was accurately pipetted onto a cubic piece (approx. 50 mg) of sterilized toast (Ölz multigrain toast, Rudolf Ölz Meisterbäcker GmbH & Co KG, Austria), and left to dry at room temperature for 5 min. Subsequently, 25 μL of 50% sucrose in distilled water were added at the same site to mask the bitter taste of compound 8. These dosage units were prepared twice a week during the study and stored in a closed glass petri dish at room temperature until use. […] Compound 8 was administered in this way for 27 days, eliminating the need for repeated handling and injection. The animals were observed daily for general activity level, hair coat quality or other abnormal behavior or clinical signs.
24 h after the last dose was administered, the mice were humanly euthanized under isoflurane inhalation anesthesia (Isoflurin®, VetPharma, Spain) and the blood was withdrawn from the left ventricle using a syringe, collected in a microtube (Eppendorf, Safe-Lock tube, 0.5 mL, Eppendorf AG, Germany) and allowed to clot. After approximately 1 h, the blood was centrifuged at 6000 × g for 15 min at 4 °C to obtain the sera, which were stored at –80 °C until analysis. […] Animal sera (5–10 μL) were diluted in 0.5 mmol/L DTNB in 0.1 mol/L sodium phosphate buffer pH 7.4 (total volume 1000 μL), substrate (5 μL of 100 mmol/L, final concentration 0.5 mmol/L) was added, and the increase in absorbance monitored for 3 min. BChE activity was determined using butyrylthiocholine iodide, while AChE activity was determined on isoOMPA-inhibited sera (buffer-diluted sera were preincubated for 25 min with 1 μL of 100 mmol/L isoOMPA–0.1 mmol/L final concentration) using acetylthiocholine iodide (final concentration 0.5 mmol/L). Measurements were performed in triplicate and pairwise compared before and after treatment for each subject (n = 5 per group).

A further test deals with hBChE (Homo sapiens, UniProt P06276). Description: ChE IC50 determination, method of Ellman, hBChE. It counts as biochemical. How it is done:
The inhibitory potencies of the compounds against the ChEs were determined using the method of Ellman following the procedure described previously. Briefly, compound stock solutions in DMSO were incubated with Ellman’s reagent and ChEs (final concentrations: 370 μmol/L Ellman’s reagent, approximately 1 nmol/L or 50 pmol/L hBChE or hAChE, respectively) in 0.1 mol/L sodium phosphate pH 8.0 for 5 min at 20 °C. For time-dependency measurements, the pre-incubation time was varied (1, 5, 15, 30 or 60 min). The reactions were started by the addition of the substrate (final concentration, 500 μmol/L butyrylthiocholine iodide or acetylthiocholine iodide for hBChE and hAChE, respectively). The final content of DMSO was always 1%. The increase in absorbance at 412 nm was monitored for 2 min using a 96-well microplate reader (Synergy HT, BioTek Instruments, VT, USA). The initial velocities in the presence (vi) and absence (v0) of the test compounds were calculated. The inhibitory potencies were expressed as the residual activities, according to Eq. (1):(1) RA = vi / v0
For IC50 determinations, at least seven different concentrations for each compound were used. The IC50 values were obtained by plotting the residual ChE activities against the applied inhibitor concentrations, with the experimental data fitted to a four-parameter logistic function (GraphPad Prism 9.4). Tacrine and donepezil were used as positive controls.
On the technique in general: DTNB colorimetry detects thiols as they appear.

The values that follow come from publication PMC12491715 (Acta Pharmaceutica Sinica. B, 2025).

Several values for one entry are separate records, joined by “and”; a condition that tells them apart may be missing. Equal values may be shown once. Read-outs that look alike come from different tables or passages of the source.

Sequence of hBChE (P06276 29-602): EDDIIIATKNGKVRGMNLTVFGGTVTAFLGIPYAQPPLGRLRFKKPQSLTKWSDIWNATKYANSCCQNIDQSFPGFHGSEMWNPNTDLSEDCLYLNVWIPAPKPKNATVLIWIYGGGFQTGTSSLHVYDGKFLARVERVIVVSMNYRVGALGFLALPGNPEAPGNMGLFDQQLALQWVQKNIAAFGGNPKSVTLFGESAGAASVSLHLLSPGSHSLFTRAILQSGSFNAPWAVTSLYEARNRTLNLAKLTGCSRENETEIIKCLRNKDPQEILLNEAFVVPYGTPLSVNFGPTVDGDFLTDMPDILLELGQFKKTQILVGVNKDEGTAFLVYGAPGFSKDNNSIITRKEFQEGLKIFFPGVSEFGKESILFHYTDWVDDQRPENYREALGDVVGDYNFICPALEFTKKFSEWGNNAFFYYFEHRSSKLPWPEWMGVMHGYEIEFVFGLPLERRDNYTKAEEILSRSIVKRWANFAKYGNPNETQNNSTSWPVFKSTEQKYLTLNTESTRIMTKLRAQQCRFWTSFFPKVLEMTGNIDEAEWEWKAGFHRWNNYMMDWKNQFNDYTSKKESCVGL

As for `CCN(CC)C(=O)n1cnc(C2(CC)Cc3ccccc3C2)c1` [Compound 8, N,N-Diethyl-4-(2-ethylindan-2-yl)-1H-imidazole-1-carboxamide], at AChE (1 or 5 mg/kg p.o. once a day for 4 weeks), the “serum AChE activities at the end of treatment” value is given as “unchanged”. Besides, the remaining activity at 1 mg/kg at AChE (mouse, po, serum, 1 mg/kg p.o. once a day, individual animals, after vs before treatment, read-out: AChE residual activity) stood at 91.2%; on AChE (mouse, po, serum, 1 mg/kg p.o. once a day, read-out: AChE residual activity, AVERAGE), 101%. Also, the remaining activity at 5 mg/kg at AChE (mouse, po, serum, 5 mg/kg p.o. once a day, read-out: AChE residual activity, AVERAGE) is 91.2%. Further, the AChE residual activity on AChE (serum, 1 mg/kg p.o. once a day, individual animals, after vs before treatment, 1 mg/kg) is 104.0%±9.7% and 107.1%±22.3%; on AChE (serum, 5 mg/kg p.o. once a day, individual animals, after vs before treatment, 5 mg/kg) it was 89.7%±14.6% and 63.0%±13.9% and 121.0%±17.4%. The “AChE activity AFTER treatment” value at AChE (serum, 1 mg/kg p.o. once a day, individual animals, 1 mg/kg) was 0.9541±0.2227 U/mL and 1.0365±0.0653 U/mL and 0.8481±0.0324 U/mL; at AChE (serum, 5 mg/kg p.o. once a day, individual animals, 5 mg/kg), 0.9258±0.0430 U/mL and 0.7420±0.1450 U/mL and 0.9517±0.0657 U/mL. The IC50 at hBChE (after 5 min preincubation, read-out: hBChE IC50±SD) was found to be 1520 ± 90 nM. The “hBChE time-dependency observed: Yes/No” value on hBChE (pre-incubation time varied) was “Yes”.

The IC50 is the midpoint of a concentration-inhibition curve.
